These results are taken from patent publication US20060234378A1, “Molecular switch regulating neurogenesis” (The Salk Institute For Biological Studies, priority 2005, published 2006).

The test system of the assay is NeuroD1 and NeuroD2 genes. In words: RT PCR of NeuroD genes after TSA and 5AzaC treatment of adult hippocampal neural stem cells. The format is cell-based, rat. To be noted: 5 nM for 2 days. The method, then:
To determine whether either of these mechanisms contributed to repression of the NeuroD promoter, adult hippocampal neural stem cells were treated with either an HDAC inhibitor, trichostatin A (TSA), or with the de-methylation reagent 5′-aza-cytidine (5AzaC). Total RNA was extracted from cells that had been treated with 5 nM TSA for 2 days and with 3 μM 5AzaC for 4 days. RT PCR analysis was performed with specific primers for NeuroD1 (SEQ ID NOs:7 and 8) and NeuroD2 (SEQ ID NOs:9 and 10) genes and a control gene, GAPDH (SEQ ID NOs:3 and 4).

Molecules are shown by their SMILES.

`CC(/C=C/C(=O)NO)=C\[C@@H](C)C(=O)c1ccc(N(C)C)cc1` [TSA, trichostatin A]: the “expression of GAPDH (control gene)” value is reported as “no effects”. Moreover, the “endogenous expression levels of mRNAs of NeuroD1 and NeuroD2” value (compared with untreated progenitor cultures) was “increased”.
